According to patent publication US9956301B2, “Complex of garcinol, cyclodextrin and method thereof” (Indus Biotech Private Limited, priority 2010, dated 2018):
Read-outs that look alike come from different tables or passages of the source.

Assays:
[1] = system: Doxorubicin induced cardiac dysfunction; assay: Activity of Garcinol against Doxorubicin induced cardiac dysfunction; type: in vivo; details: rats; for Glutathione / Lipid Peroxidation: heart tissue, Garcinol 100 mg/kg p.o. + Doxorubicin 10 mg/kg i.v., n = 4
Protocol: Male Wistar rats were pretreated with Garcinol at 10, 25, 50, 100 and 200 mg/kg (p.o.) for 18 days. On day 16, Doxorubicin at a dose of 10 mg/kg (i.v.) was administered intravenously. On day 18, animals were sacrificed. […] Elevated oxidative stress on the heart was also seen from increased lipid peroxidation and decreased glutathione (GSH) concentrations.

[2] = system: Doxorubicin induced cardiac dysfunction; type: in vivo; details: rats, Doxorubicin Control = Doxorubicin alone, Mean ± SEM; for Glutathione / Lipid Peroxidation: heart tissue, Test Molecule 20 mg/kg p.o. + Doxorubicin 10 mg/kg i.v., n = 4; for Diastolic Blood Pressure / Mean Arterial Blood Pressure / Systolic Blood Pressure: Test Molecule 20 mg/kg p.o. 18 days + Doxorubicin 10 mg/kg i.v. day 16; for Diastolic Blood Pressure / Mean Arterial Blood Pressure / Systolic Blood Pressure / Difference in Heart Rate / Difference in QT interval / Difference in ST interval: n = 6; for Difference in Heart Rate / Difference in QT interval / Difference in ST interval: pretreatment p.o. 18 days (Test Molecule 20 mg/kg) + Doxorubicin 10 mg/kg i.v. day 16
Protocol: Male Wistar rats were pretreated with 20 mg/kg (p.o.) of test molecule for 18 days. On day 16, Doxorubicin at a dose of 10 mg/kg (i.v.) was administered intravenously. On day 18, animals were sacrificed. […] It also induces significant prolongation of QT and ST intervals. Significant reduction of mean arterial blood pressure, systolic and diastolic blood pressures were observed. Elevated oxidative stress on the heart was also seen from increased lipid peroxidation and decreased glutathione (GSH) concentrations.

[3] = system: cardiac dysfunction induced by chronic Doxorubicin administration; assay: Effect of test molecule in chronic administration of Doxorubicin; type: in vivo, Male Wistar rats; details: for Cytoplasmic Eosinophilia / Cytoplasmic vacuoles / Inflammation / Myocardial necrosis / Vascular congestion: heart histopathology, day 30, chronic Doxorubicin, Test Molecule 20 mg/kg; for Cytoplasmic Eosinophilia / Cytoplasmic vacuoles / Inflammation / Myocardial necrosis / Vascular congestion / Glutathione / Lipid Peroxidation: n = 4; for Glutathione / Lipid Peroxidation: heart tissue, Test Molecule 20 mg/kg p.o. 30 days + chronic Doxorubicin; for Glutathione / Lipid Peroxidation / Diastolic Blood Pressure / Mean Arterial Blood Pressure / Systolic Blood Pressure / Difference in Heart Rate / Difference in QT interval / Difference in QTc interval / Difference in ST interval: rats, Doxorubicin Control = Doxorubicin alone, Mean ± SEM; for Diastolic Blood Pressure / Mean Arterial Blood Pressure / Systolic Blood Pressure: Test Molecule 20 mg/kg p.o. 30 days + chronic Doxorubicin 3 mg/kg x 5; for Diastolic Blood Pressure / Mean Arterial Blood Pressure / Systolic Blood Pressure / Difference in Heart Rate / Difference in QT interval / Difference in QTc interval / Difference in ST interval: n = 6; for Difference in Heart Rate / Difference in QT interval / Difference in QTc interval / Difference in ST interval: pretreatment p.o. 30 days (Test Molecule 20 mg/kg) + Doxorubicin 3 mg/kg on days 1, 7, 14, 21, 28
Protocol: Male Wistar rats were pretreated with 20 mg/kg (p.o.) of test molecule for 30 days. On days 1, 7, 14, 21 and 28, Doxorubicin at a dose of 3 mg/kg […] was administered intravenously. On Day 30, animals were sacrificed for histopathological examination of the heart.

[4] = Water solubility of Garcinol and test molecule; type: physicochemical; details: room temperature
From the text: Garcinol is insoluble in water at room temperature.

[5] = system: Isoproterenol induced cardiac dysfunction; assay: Cardioprotective activity of test molecule in Isoproterenol induced cardiac dysfunction; type: in vivo, Male Wistar rats; details: rats, Isoproterenol Control = Isoproterenol alone, Mean ± S.E.M.
Protocol: Male Wistar rats were pretreated with 20 mg/kg (p.o.) of test molecule 18 days. From Day 9, Isoproterenol at a dose of 1 mg/kg/day was administered intravenously for 10 days. Isoproterenol administration induced significant changes to the QT and ST interval. Isoproterenol induced oxidative stress was observed by decreased Glutathione (GSH) and increased lipid peroxidation concentrations in the heart.

[6] = system: Digitalis induced cardiac dysfunction; assay: Cardioprotective activity of test molecule in Digitalis induced cardiac dysfunction; type: in vivo, Male Wistar rats
Protocol: Male Wistar rats were pretreated with 20 mg/kg (p.o.) of test molecule for 18 days. On Day 18, Digitalis at a three doses of 500 […] was administered intravenously with interval period of 15 min. After this, 200 […] was administered every 15 min continued upto cardiac arrest. Histopathological examination of the heart was conducted.

[7] = Doxorubicin Control = Doxorubicin alone, Mean ± SEM
[8] = Garcinol 100 mg/kg p.o. 18 days + Doxorubicin 10 mg/kg i.v. day 16, Doxorubicin Control = Doxorubicin alone, Mean ± SEM, n = 6
[9] = heart tissue, Test Molecule 20 mg/kg + Isoproterenol, n = 4
[10] = test molecule 20 mg/kg p.o. 18 days + Isoproterenol 1 mg/kg/day i.v. 10 days from Day 9, n = 5
[11] = heart histopathology, Digitalis induced cardiac dysfunction, n = 4
[12] = rats, test molecule 20 mg/kg p.o. 18 days + Digitalis i.v., Digitalis Control = Digitalis alone, Mean ± S.E.M, n = 4
[13] = rats, test molecule 20 mg/kg p.o. 18 days, then Digitalis i.v. every 15 min up to cardiac arrest, Digitalis Control = Digitalis alone, Mean ± S.E.M., n = 6

Row | Compound | Glutathione [1, 7] | Lipid Peroxidation [1, 7] | Glutathione [2] | Lipid Peroxidation [2] | Diastolic Blood Pressure [2] [mm Hg] | Mean Arterial Blood Pressure [2] [mm Hg] | Systolic Blood Pressure [2] [mm Hg] | Difference in Heart Rate [2] [bpm] | Difference in QT interval [2] [s] | Difference in ST interval [2] [s] | Cytoplasmic Eosinophilia [3] | Cytoplasmic vacuoles [3] | Inflammation [3] | Myocardial necrosis [3] | Vascular congestion [3] | Glutathione [3] | Lipid Peroxidation [3] | Diastolic Blood Pressure [3] [mm Hg] | Mean Arterial Blood Pressure [3] [mm Hg] | Systolic Blood Pressure [3] [mm Hg] | further results
1 | COc1cccc2c1C(=O)c1c(O)c3c(c(O)c1C2=O)C[C@@](O)(C(=O)CO)C[C@@H]3O[C@H]1C[C@H](N)[C@H](O)[C@H](C)O1 [Doxorubicin] | 16.10 ± 1.17 μg/mg of protein | 4.56 ± 0.47 nmol of MDA/mg of Protein | 17.29 ± 0.4496 μg/mg of protein | 4.160 ± 0.3427 nmol of MDA/mg of Protein | 75.96 ± 3.611 | 89.26 ± 1.837 | 89.44 ± 5.108 | −33.67 ± 15.96 | 0.0229 ± 0.00206 | 0.015 ± 0.001497 | +++ ((+++) 60-90% of cells show changes) | ++ ((++) 30-60% of cells show changes) | +++ ((+++) 60-90% of cells show changes) | +++ ((+++) 60-90% of cells show changes) | ++ ((++) 30-60% of cells show changes) | 15.05 ± 0.8970 μg/mg of protein | 4.631 ± 0.3671 nmol of MDA/mg of Protein | 82.81 ± 1.997 | 86.67 ± 0.9226 | 92.59 ± 1.728 | Number of Animals Deaths ([1]; Doxorubicin Control: Doxorubicin 10 mg/kg i.v. day 16 alone): 0/6; Difference in Heart Rate [1, 8]: −77.5 ± 19.63 bpm; Difference in QT interval [1, 8]: 0.014 ± 0.0035 s; Difference in ST interval [1, 8]: 0.0085 ± 0.0048 s; Difference in Heart Rate [3]: −64.59 ± 12.13 bpm; Difference in QT interval [3]: 0.015 ± 0.00087 s; Difference in QTc interval [3]: 0.035 ± 0.0046 s; Difference in ST interval [3]: 0.016 ± 0.0015 s
2 | C=C(C)[C@@H](CC=C(C)C)C[C@@]12C[C@@H](CC=C(C)C)C(C)(C)[C@@](CC=C(C)C)(C(=O)C(C(=O)c3ccc(O)c(O)c3)=C1O)C2=O [Garcinol] | 22.05 ± 1.031 μg/mg of protein | 1.69 ± 0.04 nmol of MDA/mg of Protein |  |  |  |  |  |  |  |  |  |  |  |  |  |  |  |  |  |  | Water solubility [4]: insoluble; Animal mortality / toxicity (in words) ([1]; Garcinol 100 to 200 mg/kg p.o., Doxorubicin 10 mg/kg i.v.): animal mortality was observed
3 | CC(C)NCC(O)c1ccc(O)c(O)c1 (stereo not shown) [Isoproterenol] |  |  |  |  |  |  |  |  |  |  |  |  |  |  |  |  |  |  |  |  | Glutathione [5, 9]: 19.02 ± 0.8526 μg/mg of protein; Lipid Peroxidation [5, 9]: 4.443 ± 0.0392 nmol of MDA/mg of Protein; Difference in Heart Rate [5, 10]: 43.66 ± 6.267 bpm; Difference in QT interval [5, 10]: 0.01686 ± 0.002 s; Difference in ST interval [5, 10]: 0.0180 ± 0.0009 s; Mean Arterial Blood Pressure [5, 10]: 72.45 ± 5.942 mm Hg
4 | Cyclodextrin |  |  | 16.76 ± 0.4971 μg/mg of protein | 4.056 ± 0.2880 nmol of MDA/mg of Protein | 76.83 ± 1.709 | 89.26 ± 2.357 | 89.88 ± 4.507 | −34.87 ± 6.935 | 0.0225 ± 0.00091 | 0.014 ± 0.001025 | ++ ((++) 30-60% of cells show changes) | ++ ((++) 30-60% of cells show changes) | +++ ((+++) 60-90% of cells show changes) | +++ ((+++) 60-90% of cells show changes) | ++ ((++) 30-60% of cells show changes) | 15.15 ± 0.6584 μg/mg of protein | 4.700 ± 0.6126 nmol of MDA/mg of Protein | 80.00 ± 2.298 | 88.04 ± 1.813 | 92.22 ± 2.275 | Difference in Heart Rate [3]: −66.22 ± 8.303 bpm; Difference in QT interval [3]: 0.015 ± 0.00437 s; Difference in QTc interval [3]: 0.033 ± 0.0092 s; Difference in ST interval [3]: 0.016 ± 0.0022 s
5 | Digitalis |  |  |  |  |  |  |  |  |  |  |  |  |  |  |  |  |  |  |  |  | Cytoplasmic Eosinophilia [6, 11]: ++ ((++) 30-60% of cells show changes); Cytoplasmic vacuoles [6, 11]: ++ ((++) 30-60% of cells show changes); Inflammation [6, 11]: +++ ((+++) 60-90% of cells show changes); Myocardial necrosis [6, 11]: +++ ((+++) 60-90% of cells show changes); Vascular congestion [6, 11]: ++ ((++) 30-60% of cells show changes); Glutathione [6, 12]: 21.01 ± 0.5369 μg/mg of protein; Lipid Peroxidation [6, 12]: 6.909 ± 0.4459 nmol of MDA/mg of Protein; Dose of Digitalis required for inducing Arterial Fibrillation [6, 13]: 2.933 ± 0.2333 mg/kg; Dose of Digitalis required for inducing Cardiac Arrest [6, 13]: 3.067 ± 0.2801 mg/kg; Dose of Digitalis required for inducing Ectopic Beats [6, 13]: 2.7 ± 0.2129 mg/kg
